According to US9845322B2 (Hoffmann-La Roche Inc., priority 2016, dated 2017):
Like-named read-outs stand apart in the source and are kept apart here.

Tested on: HBsAg secretion in HepG2.2.15 cells
Test: HBsAg assay (chemiluminescence immunoassay of secreted HBsAg in culture supernatant)
Type: cell-based, HBV
Conditions: concentration at which HBsAg secretion was reduced by 50% compared to the no drug control, read-out: IC50 (HBsAg assay)
Experimental: HepG2.2.15 cells (Acs et al. Proc Natl Acad Sci USA, 84, (1987), 4641-4), a constitutively HBV-expressing cell line were cultured in DMEM+Glutamax-I medium (Invitrogen, Carlsbad, Calif., USA), supplemented with 10% fetal bovine serum (Invitrogen) and G418 (Invitrogen) at a final concentration of 200 mg/L and maintained in 5% CO2 at 37° C.
HepG2.2.15 cells were seeded in duplicate into white, 96-well plates at 1.5×10^4 cells/well. The cells were treated with a three-fold serial dilution series of the compounds in DMSO. The final DMSO concentration in all wells was 1% and DMSO was used as no drug control.
The HBsAg chemiluminescence immunoassay (CLIA) kit (Autobio Diagnostics Co., Zhengzhou, China, Catalog number: CL0310-2) was used to measure the levels of secreted HBV antigens semi-quantitatively. For the detection 50 μL/well culture supernatant was used and HBsAg was quantified using HBsAg chemiluminescence immunoassay (CLIA) kit (Autobio Diagnostics Co., Zhengzhou, China, Catalog number: CL0310-2), 50 μL of the supernatant was transferred to the CLIA assay plate and 50 μL of enzyme conjugate reagent was added into each well. The plates were sealed and gently agitated for 1 hour at room temperature. The supernatant-enzyme-mixture was discarded and wells were washed 6 times with 300 μL of PBS. The residual liquid was removed by plating the CLIA plate […] on absorbent tissue paper. 25 μL of substrates A and B were added to each well. Luminance was measured using a luminometer (Mithras LB 940 Multimode Microplate Reader) after 10 minutes incubation. Dose-response curves were generated and the IC50 value was extrapolated by using the E-WorkBook Suite (ID Business Solutions Ltd., Guildford, UK). The IC50 was defined as the compound concentration (or conditioned media log dilution) at which HBsAg secretion was reduced by 50% compared to the no drug control.
The compounds according to formula I were tested for their capacity to inhibit HBsAg as described herein.

[1] = Hepatitis B virus, HepG2.2.15, HepG2.2.15 cells

Compound	IC50 [1] [nM]	IC50 (HepG2.2.15 cells) [nM]
COc1cc(N2CCc3nc(-c4ncccn4)ncc3C2C)cc(Cl)n1 (centres unmarked) [Example 141, 6-(2-chloro-6-methoxy-4-pyridyl)-5-methyl-2-pyrimidin-2-yl-7,8-dihydro-5H-pyrido[4,3-d]pyrimidine]	113	–
CC1c2cnc(-c3ncccn3)nc2CCN1c1cc(NS(C)(=O)=O)cc(F)n1 (centres unmarked) [Example 211, N-[2-fluoro-6-(5-methyl-2-pyrimidin-2-yl-7,8-dihydro-5H-pyrido[4,3-d]pyrimidin-6-yl)-4-pyridyl]methanesulfonamide]	270	–
COCCCNS(=O)(=O)c1cc(F)cc(N2CCc3nc(-c4ncccn4)ncc3C2C)c1 (centres unmarked) [Example 182, 3-fluoro-N-(3-methoxypropyl)-5-(5-methyl-2-pyrimidin-2-yl-7,8-dihydro-5H-pyrido[4,3-d]pyrimidin-6-yl)benzenesulfonamide]	2240	–
CC1c2cnc(-c3ncccn3)nc2CCN1c1cc(F)c(F)c(OCCCS(C)(=O)=O)c1 (single isomer, unassigned; (+)) [Example 48, (+)-6-[3,4-difluoro-5-(3-methylsulfonylpropoxy)phenyl]-5-methyl-2-pyrimidin-2-yl-7,8-dihydro-5H-pyrido[4,3-d]pyrimidine]	–	184
CC1c2cnc(-c3ncccn3)nc2CCN1c1cc(F)c(F)c(OCCC(=O)O)c1 (centres unmarked) [Example 51, 3-[2,3-difluoro-5-(5-methyl-2-pyrimidin-2-yl-7,8-dihydro-5H-pyrido[4,3-d]pyrimidin-6-yl)phenoxy]propanoic acid]	2670	–
CC1c2cnc(-c3ncccn3)nc2CCN1c1cc(F)c(F)c(OCC2CN(C(=O)OC(C)(C)C)C2)c1 (centres unmarked) [Example 132, tert-butyl 3-[[2,3-difluoro-5-(5-methyl-2-pyrimidin-2-yl-7,8-dihydro-5H-pyrido[4,3-d]pyrimidin-6-yl)phenoxy]methyl]azetidine-1-carboxylate]	30	–
CC1c2cnc(-c3ncccn3)nc2CCN1c1cc(F)c(F)c(OCC2CCS(=O)(=O)C2)c1 (centres unmarked) [Example 100]	96	–
Cc1cc(F)cc(N2CCc3nc(-c4ncccn4)ncc3C2C)c1 (centres unmarked) [Example 134, 6-(3-fluoro-5-methyl-phenyl)-5-methyl-2-pyrimidin-2-yl-7,8-dihydro-5H-pyrido[4,3-d]pyrimidine]	48	–
CC1c2cnc(-c3ncccn3)nc2CCN1c1cc(F)c(F)c(OCC2COC2)c1 (centres unmarked) [Example 76, 6-[3,4-difluoro-5-(oxetan-3-ylmethoxy)phenyl]-5-methyl-2-pyrimidin-2-yl-7,8-dihydro-5H-pyrido[4,3-d]pyrimidine]	28	–
CC1c2cnc(-c3ncccn3)nc2CCN1c1cc(F)c(F)c(OCC2(CO)CC2)c1 (centres unmarked) [Example 77, [1-[[2,3-difluoro-5-(5-methyl-2-pyrimidin-2-yl-7,8-dihydro-5H-pyrido[4,3-d]pyrimidin-6-yl)phenoxy]methyl]cyclopropyl]methanol]	105	–
CC1c2cnc(-c3ccccn3)nc2CCN1c1cc(F)c(F)c(OCC(=O)N2CCCC2)c1 (centres unmarked) [Example 31, 2-[2,3-difluoro-5-[5-methyl-2-(2-pyridyl)-7,8-dihydro-5H-pyrido[4,3-d]pyrimidin-6-yl]phenoxy]-1-pyrrolidin-1-yl-ethanone]	156	–
COc1cc(F)cc(N2CCc3cc(-c4ncccn4)ncc3C2C)c1 (centres unmarked) [Example 135, 2-(3-fluoro-5-methoxy-phenyl)-1-methyl-6-pyrimidin-2-yl-3,4-dihydro-1H-2,7-naphthyridine]	15	–
CC1c2cnc(-c3ncccn3)nc2CCN1c1cc(F)c(F)c(OCC2CS(=O)(=O)C2)c1 (centres unmarked) [Example 120, 3-[[2,3-difluoro-5-(5-methyl-2-pyrimidin-2-yl-7,8-dihydro-5H-pyrido[4,3-d]pyrimidin-6-yl)phenoxy]methyl]thietane 1,1-dioxide]	96	–
COc1cc(F)cc(N2CCc3nc(-c4ncccn4)ncc3C2C)n1 (centres unmarked) [Example 142, 6-(4-fluoro-6-methoxy-2-pyridyl)-5-methyl-2-pyrimidin-2-yl-7,8-dihydro-5H-pyrido[4,3-d]pyrimidine]	40	–
CC1c2cnc(-c3ncccn3)nc2CCN1c1cc(F)c(F)c(OCCCN2CCN(C(=O)OC(C)(C)C)CC2=O)c1 (centres unmarked) [Example 98, tert-butyl 4-[3-[2,3-difluoro-5-(5-methyl-2-pyrimidin-2-yl-7,8-dihydro-5H-pyrido[4,3-d]pyrimidin-6-yl)phenoxy]propyl]-3-oxo-piperazine-1-carboxylate]	372	–
CC1c2cnc(-c3ccccn3)nc2CCN1c1cc(F)cc(N2CCCCC2)n1 (centres unmarked) [Example 219, 6-[4-fluoro-6-(1-piperidyl)-2-pyridyl]-5-methyl-2-(2-pyridyl)-7,8-dihydro-5H-pyrido[4,3-d]pyrimidine]	110	–
CC1c2cnc(-c3ccccn3)nc2CCN1c1cc(F)c(F)c(OCCCNS(C)(=O)=O)c1 (centres unmarked) [Example 35, N-[3-[2,3-difluoro-5-[5-methyl-2-(2-pyridyl)-7,8-dihydro-5H-pyrido[4,3-d]pyrimidin-6-yl]phenoxy]propyl]methanesulfonamide]	46	–
CC1c2cnc(-c3ncccn3)nc2CCN1c1cc(OCC2CCOC2)cc(F)n1 (centres unmarked) [Example 154, 6-[6-fluoro-4-(tetrahydrofuran-3-ylmethoxy)-2-pyridyl]-5-methyl-2-pyrimidin-2-yl-7,8-dihydro-5H-pyrido[4,3-d]pyrimidine]	7	–
CC1c2cnc(-c3ncccn3)nc2CCN1c1cc(F)cc(N(C)C)n1 (single isomer, unassigned; (-)) [Example 205, (−)-4-fluoro-N,N-dimethyl-6-[5-methyl-2-pyrimidin-2-yl-7,8-dihydro-5H-pyrido[4,3-d]pyrimidin-6-yl]pyridin-2-amine]	–	5
CC1c2cnc(-c3ncccn3)nc2CCN1c1cc(F)cc(N(C)C)n1 (centres unmarked) [Example 197, 4-fluoro-N,N-dimethyl-6-(5-methyl-2-pyrimidin-2-yl-7,8-dihydro-5H-pyrido[4,3-d]pyrimidin-6-yl)pyridin-2-amine]	–	6
CC1c2cnc(-c3ncccn3)nc2CCN1c1cc(F)c(F)c(OCCCCCCNC(=O)OC(C)(C)C)c1 (centres unmarked) [Example 58, tert-butyl N-[6-[2,3-difluoro-5-(5-methyl-2-pyrimidin-2-yl-7,8-dihydro-5H-pyrido[4,3-d]pyrimidin-6-yl)phenoxy]hexyl]carbamate]	193	–
CC1c2cnc(-c3ncccn3)nc2CCN1c1cc(F)c(F)c(OCCCNC(=O)OC(C)(C)C)c1 (centres unmarked) [Example 90, tert-butyl N-[3-[2,3-difluoro-5-(5-methyl-2-pyrimidin-2-yl-7,8-dihydro-5H-pyrido[4,3-d]pyrimidin-6-yl)phenoxy]propyl]carbamate]	22	–
CC1c2cnc(-c3ccccn3)nc2CCN1c1cc(OCCCCCCC(=O)O)cc(F)n1 (centres unmarked) [Example 179, 7-[[2-fluoro-6-[5-methyl-2-(2-pyridyl)-7,8-dihydro-5H-pyrido[4,3-d]pyrimidin-6-yl]-4-pyridyl]oxy]heptanoic acid]	29	–
COc1cc(N2CCc3nc(-c4ncccn4)ncc3C2C)cc(F)c1F (centres unmarked) [Example 15, 6-(3,4-difluoro-5-methoxy-phenyl)-5-methyl-2-pyrimidin-2-yl-7,8-dihydro-5H-pyrido[4,3-d]pyrimidine]	–	15
CC1c2cnc(-c3ccccn3)nc2CCN1c1cc(OCC2CCCO2)cc(F)n1 (centres unmarked) [Example 189, 6-[6-fluoro-4-(tetrahydrofuran-2-ylmethoxy)-2-pyridyl]-5-methyl-2-(2-pyridyl)-7,8-dihydro-5H-pyrido[4,3-d]pyrimidine]	40	–
CC1c2cnc(-c3ncccn3)nc2CCN1c1cc(OCCCCCC(=O)O)cc(F)n1 (single isomer, unassigned; (-)) [Example 164, (−)-6-[[2-fluoro-6-[5-methyl-2-pyrimidin-2-yl-7,8-dihydro-5H-pyrido[4,3-d]pyrimidin-6-yl]-4-pyridyl]oxy]hexanoic acid]	22	–
CC1c2cnc(-c3ccccn3)nc2CCN1c1cc(F)c(F)c(OCCCCO)c1 (centres unmarked) [Example 24, 4-[2,3-difluoro-5-[5-methyl-2-(2-pyridyl)-7,8-dihydro-5H-pyrido[4,3-d]pyrimidin-6-yl]phenoxy]butan-1-ol]	29	–
CC1c2cnc(-c3ncccn3)nc2CCN1c1cc(OCCCOCC(N)=O)cc(F)n1 (centres unmarked) [Example 163, 2-[3-[[2-fluoro-6-(5-methyl-2-pyrimidin-2-yl-7,8-dihydro-5H-pyrido[4,3-d]pyrimidin-6-yl)-4-pyridyl]oxy]propoxy]acetamide]	35	–
CC1c2cnc(-c3ncccn3)nc2CCN1c1cc(F)cc(OC(F)(F)F)c1 (centres unmarked) [Example 133, 6-[3-fluoro-5-(trifluoromethoxy)phenyl]-5-methyl-2-pyrimidin-2-yl-7,8-dihydro-5H-pyrido[4,3-d]pyrimidine]	1760	–
